Consider one compound from article PMC10254852, “Design, Synthesis and Anticancer Evaluation of Nitroimidazole Radiosensitisers” (Molecules, 2023).

Each structure is given as a SMILES string. Read-outs that look alike come from different tables or passages of the source.

Data set [1] in a line: Plasma pharmacokinetics after single i.v. dose. The note with it: female, mouse, iv, NIH-III mice, 2.2 mmol/kg i.v. The format is in vivo. How it is done: (§1) Specific pathogen-free six- to eight-week-old female NIH-III mice, bred in the Vernon Jansen Unit, University of Auckland, were used for animal experiments. Animals had ad libitum access to food and water and were maintained in microisolator cages on a 12 h light/dark cycle. All treatments were administered by i.v. injection at a dose of 2.2 mmol/kg and injection volume of 10 mL/kg. Compounds 2, 34 and 38 were administered as solutions in saline containing 1% DMSO or for 9–12 as solutions in saline containing 2 molar equivalents of NaHCO3. Control animals received an i.v. injection of saline at 10 mL/kg. All animal experiments were conducted under the auspices of the University of Auckland Animal Ethics Committee (approval 1781).
Female NIH-III mice were injected with a single i.v. dose of 34 at its MAD of 2.2 mmol/kg in saline. Blood was collected by cardiac puncture under terminal CO2 anaesthesia at 5, 10, 30, 60 and 120 min after dosing. Blood was immediately centrifuged (3000× g, 3 min), and plasma was stored at −80 °C for HPLC. Tumour samples were prepared and analysed by HPLC using standard protocols established in our laboratory.

For the next data set, the system named is UT-SCC-74B tumours. The data set is described as follows: Tumour radiosensitisation: ex vivo clonogenic assay. In kind it is in vivo, NIH-III mice.
Another data set relates to HCT116/54C tumours. The description is as above. In kind it is in vivo, NIH-III mice.
The test system of data set [2] is UT-SCC-74B tumour xenografts. The data set is described as follows: Tumour growth inhibition in combination with radiation. The format is in vivo, NIH-III mice. As to conditions: UT-SCC-74B tumours, single dose 2.2 mmol/kg i.v. How it is done:
as §1
(§2) Compounds were evaluated for their ability to inhibit tumour growth in combination with a single dose of radiation (10 Gy) in HCT116/54C or UT-SCC-74B tumour xenografts on the backs of NIH-III mice. In addition, a fractionated radiation schedule (5 Gy on Days 1, 7 and 14) was explored in HCT116/54C tumour xenografts. Mice were randomly assigned to 4 treatment groups and treated with: (A) vehicle control, (B) 10 Gy RAD only, (C) sensitiser only, or (D) sensitiser given 10 min before 10 Gy RAD. Drugs were administered by i.v. injection at 2.2 mmol/kg either as a single dose or three doses on Days 1, 7 and 14 in the fractionated study. Treatment commenced when the average tumour size reached approximately 250 mm^3, and tumour size was measured until study endpoint. Mice were placed in a custom-built lead-shielded jig that allowed irradiation of the whole tumour but shielded the mouse from radiation. Survival analysis represented the time taken for tumours to increase in relative tumour volume by 4× from the start of treatment (RTV^4). The significance of differences in activity between the groups was assessed by log-rank with Holm–Sidak multiple comparison analysis.

The test system of data set [3] is HCT116/54C tumour xenografts. The data set is described as above. The format is in vivo, NIH-III mice. The note with it: HCT116/54C tumours. Here is the method: as §1, §2
The nature of data set [4]: Tolerability at maximum achievable dose, i.v. The note with it: i.v. injection, NIH-III mice. In kind it is in vivo.
Source text: The most promising 2-nitroimidazole 34 and 5-nitroimidazole 38 compounds were selected for in vivo evaluation on the basis of solubility, in vitro cytotoxicity and radiosensitisation data. These compounds were both well tolerated by i.v. injection in NIH-III mice at their maximum achievable dose (MAD) of 2.2 mmol/kg. This MAD was also achieved for some of our earlier compounds, but only when we employed a phosphate prodrug strategy owing to their poor solubility. […] The Cmax and AUC exceeded that achieved for earlier phosphate prodrugs 9–12, but was less than 2. On this basis we advanced both morpholine analogues into in vivo radiosensitisation studies.
as §1

The subject of the next data set is UT-SCC-74B cells. The experiment in a line: In vitro cytotoxicity, 4 h exposure oxic/anoxic, 5-day regrowth, sulforhodamine B. As to conditions: for IC50: Homo sapiens, 4 h exposure, mean ± SEM. In kind it is cell-based, human.
For a further data set, the system named is HCT116/54C cells. The data set is described as above. The format is cell-based, human. As to conditions: for IC50: Homo sapiens, 4 h exposure, mean ± SEM, n = 3–4.
Setting [5] is: 2.2 mmol/kg i.v. 5 min prior to 10 Gy radiation, surviving fraction after radiation/surviving fraction after drug + radiation.
Where [6] appears, read: 2.2 mmol/kg i.v. + 10 Gy, one-way ANOVA.
Setting [7] is: drug alone 2.2 mmol/kg i.v., relative to untreated tumours.
Where [8] appears, read: 2.2 mmol/kg i.v., 10 Gy, mechanism experiment (Figure 3).

Compound `O=[N+]([O-])c1nccn1CS(=O)(=O)NCCN1CCOCC1` [Compound 34] returned an AUC in data set [1] of 960 µM·h. Further, the peak concentration (Cmax) in data set [1] was determined as 1530 µM. For the same compound, in data set [1], the half-life is 1.52 h. The “Sensitisation Ratio” value in the data set on UT-SCC-74B tumours (setting [5]) is on record as 13.8; in the data set on HCT116/54C tumours (setting [5]), 14.9. Moreover, the “enhancement of tumour cell killing by radiotherapy (RAD vs drug + RAD)” value with UT-SCC-74B tumours (setting [6]) is “significantly enhanced tumour cell killing by radiotherapy”. Besides, the “single agent cell kill” value in the data set on UT-SCC-74B tumours (setting [7]) is reported as 68.4 ± 1.2%; in the data set with HCT116/54C tumours (setting [7]) it was 62.3 ± 7.9%. Further, the “enhancement of tumour killing of radiotherapy (RAD vs drug + RAD)” value in the data set with HCT116/54C tumours (setting [6]) is “significantly enhanced the tumour killing of radiotherapy”. In the data set with HCT116/54C tumours (setting [8]), the “SR, drug given 5 min before radiation” value came out at 9.76. Further, the “SR, drug given 20 min after radiation” value in the data set on HCT116/54C tumours (setting [8]) was 1.49. The “tumour growth inhibition with single dose 10 Gy radiation” value in data set [2] and in data set [3] (single dose 2.2 mmol/kg i.v.) was “able to sensitise 10 Gy radiation to a similar level observed with 2” throughout. In addition, the “survival (time to RTV^4) vs radiation alone” value in data set [3] (fractionated radiation, p < 0.05) is recorded as “significantly increased survival compared to radiation alone”. Further, the “tumour growth delay with fractionated radiation” value in data set [3] (qw × 3, 5 Gy, 2.2 mmol/kg i.v.) was “delayed tumour growth relative to radiation alone”. Also, in data set [4], the “maximum achievable dose (MAD), well tolerated” value stood at 2.2 mmol/kg. Also, the IC50 with UT-SCC-74B cells (anoxic, n = 3–4, read-out: IC50 Anoxic) was 0.51 ± 0.08 mM; in the data set with UT-SCC-74B cells (oxic, n = 3–4, read-out: IC50 Oxic) it was 12.6 ± 1.8 mM; with HCT116/54C cells (HCT116/54C, anoxic, read-out: IC50 Anoxic) it was 0.17 ± 0.01 mM; with HCT116/54C cells (HCT116/54C, oxic, read-out: IC50 Oxic), 6.4 ± 1 mM. Also, the HCR stood at 24.5 with UT-SCC-74B cells (IC50(oxic)/IC50(anoxic)) and 38.8 in the data set on HCT116/54C cells (HCT116/54C, IC50(oxic)/IC50(anoxic)). In addition, the “HCR values in vitro” value with HCT116/54C cells (range across the cell line panel) was 23–38.
